Measurements published in PubChem BioAssay (NCI).
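Where inhibition never reached the appropriate level, the endpoint shown equals the highest concentration tested. Otherwise, values were interpolated linearly from a five-concentration, 48-hour dose response in 96-well plates. TGI: total growth inhibition.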

Columns and labels:
Test in all cases: NCI tumour cell line growth inhibition, 48 h
[1] = test system: LXFL 529 NSCLC
[2] = test system: XF 498 CNS
[3] = test system: SN12K1 renal
[4] = test system: P388 leukemia
[5] = test system: P388/ADR leukemia
[6] = test system: RXF-631 renal

Structure (SMILES) | TGI [1] [µM] | TGI [2] [µM] | TGI [6] [µM] | further results
O=C(CSc1nnc(Cc2ccccc2)o1)Nc1ccc(Cl)cc1 | > 100 |  |  | 
O=c1ccc2ccccc2o1 | > 100 | > 100 |  | 
COC(=O)[C@@H]1c2cc3c(c(O)c2[C@@H](OC)C[C@@]1(C)O)C(=O)c1c(O)cc2c(c1C3=O)OC1O[C@@]2(C)[C@H](O)[C@@H](N(C)C)[C@@H]1O |  | 0.66 |  | TGI [3]: 1.41 µM; TGI [4]: 2.36 µM; TGI [5]: 15 µM
Cc1cc2c(c3oc(C(O)(CO)C4CO4)cc(=O)c13)C(=O)c1c(O)cccc1C2=O (stereo unspecified) |  |  | > 100 | 
CCOC(OCC)C(CC)[Se]c1ccccc1[N+](=O)[O-] (stereo unspecified) | > 100 | > 49 |  | 
COc1ccc(/C(Cl)=C(\C=O)c2ccc(F)cc2)cc1 | 61.6 |  | 80.6 | 
CN1N=C2c3ccccc3CC[C@H]2C1c1ccccc1 (stereo partly specified) | > 100 |  |  | 
O=[N+]([O-])c1ccc(NC2OCC(O)C(O)C2O)cc1 (stereo unspecified) | > 100 | > 100 | > 100 | 
NC(=O)N/N=C(\Cc1nc2ccc(C(=O)c3ccccc3)cc2[nH]c1=O)C(=O)Nc1ccc(Br)cc1 | > 100 | > 100 |  | 
Nc1nc2c(ncn2CCOC(c2ccccc2)P(=O)(O)O)c(=O)[nH]1 (stereo unspecified) | > 100 |  |  | 
C[C@@]12CC[C@H]3[C@@H]4CCC(=O)N[C@@]4(C)CC[C@@H]3[C@@]1(C)CC[C@H](OC(=O)Cc1ccc(N(CCCl)CCCl)cc1)C2 |  |  |  | TGI [3]: 32.5 µM; TGI [4]: 32 µM; TGI [5]: 58.8 µM
CCSc1nc2sc(C)c(C)c2c(=O)n1-c1ccc(C(=O)O)cc1 |  | > 100 |  | 
Cc1cc(Cc2cc(C)c(NC(=O)C(=O)C3C(=O)NC(=S)NC3=O)c(C(C)C)c2)cc(C(C)C)c1NC(=O)C(=O)C1C(=O)NC(=S)NC1=O | > 100 |  | > 100 | 
CN(C)CCNCc1c2ccccc2c(CNCCN(C)C)c2ccccc12 |  | > 100 |  | TGI [3]: 67.6 µM; TGI [4]: > 56.2 µM; TGI [5]: > 100 µM
CN(C)C(=O)CC(C(=O)O)c1c[nH]c2ccccc12 (stereo unspecified) | > 100 |  | > 100 | 
